Target: T1, human Kir2.1 (Homo sapiens, UniProt P63252)
T1 construct: expressed in transfected cells
T1 sequence (P63252 1-427): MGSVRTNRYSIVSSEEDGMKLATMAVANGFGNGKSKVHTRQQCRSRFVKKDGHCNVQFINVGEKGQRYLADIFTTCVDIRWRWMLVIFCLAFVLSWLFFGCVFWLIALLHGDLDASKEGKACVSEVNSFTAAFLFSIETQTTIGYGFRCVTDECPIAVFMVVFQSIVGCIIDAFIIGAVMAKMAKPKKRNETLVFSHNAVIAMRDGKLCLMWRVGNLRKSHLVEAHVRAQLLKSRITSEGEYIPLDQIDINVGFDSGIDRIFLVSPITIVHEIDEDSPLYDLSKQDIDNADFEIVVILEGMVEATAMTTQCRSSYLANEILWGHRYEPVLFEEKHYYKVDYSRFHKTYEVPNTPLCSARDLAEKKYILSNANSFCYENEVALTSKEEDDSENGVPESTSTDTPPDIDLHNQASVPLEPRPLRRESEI
Experiment: Kir2.1 thallium flux assay
Format: cell-based
Conditions: for IC50 / Thallium Flux Potency IC50: T-REx-HEK-293 cells expressing human Kir2.1, 4PL fit, top concentration 30 μM; for IC50: read-out: Thallium Flux Potency IC50; for inhibition at 30 µM: compounds not fitting 4PL (> 10 μM): value at 30 μM relative to 30 μM ML133, read-out: Thallium Flux Efficacy (% Inhibition), 30 μM measured value; for Thallium Flux Efficacy (% Inhibition) / Emax: efficacy from 4PL fit, relative to ML133; for Emax: read-out: Thallium Flux Efficacy (% Inhibition)
Experimental: Thallium Flux Assay Experimental Conditions
The Tl+ flux assays were conducted as previously described with modifications optimized for Kir2.1 cell line as described below.1
Briefly, stable T-REx-HEK-293 cells expressing human K ir2.1 were cultured in DMEM growth medium (Catalog #11965-092, Gibco, Billings, MT) containing 10% heat-inactivated FBS (Catalog #16140, Gibco), 100 U/mL PenStrep, 5 μg/mL Blasticidin S, and 250 μg/mL Hygromycin.
The day prior to the experiment, cells at ~90% confluency were resuspended in plating media, which consisted of the same components as the growth media, except that heat-inactivated FBS was replaced with dialyzed FBS (Catalog #26400, Gibco). Tetracycline was added to the plating media to achieve a final concentration of 1 μg/ml to induce hKir2.1 expression. Cells were then counted and plated at 15,000 cells/well in black-walled, amine- or PDL- coated, 384-well plates at 20 μl/well (Corning, Corning, NY). On the day of experiment, the media was removed from the cell plate and replaced with 20 μl/well of Tl+-sensitive dye loading solution containing 2.5 μg/ml Thallos-AM (Catalog #11000-050, ION Biosciences, San Marcos, TX) in assay buffer using a Multidrop Combi dispenser (Thermo Fisher Scientific, Walkham, MA). Cell plates loaded with dye solution were incubated for 1 hour at room temperature. Following incubation, the cell plate was washed with HBSS assay buffer containing 20 mM HEPES using a BioTek ELx 405 TS plate washer (Agilent, Santa Clara, CA), leaving 20 μl of assay buffer in each well. The cell plate was then transferred to a Panoptic kinetic imaging plate reader (WaveFront Biosciences, Franklin, TN) for imaging at 1 Hz, 482/35 nm excitation and 536/40 nm emission for 10 seconds. Following this, 20 μl/well of HBSS assay buffer containing test compounds at 2-fold over their final concentrations were added and imaging continued for another eight minutes, after which 10 μl/well of chloride-free Tl+ stimulus solution was added (Catalog #11000-050, ION Biosciences). The final Tl2SO4 concentration in cell plate post-Tl+ stimulus solution addition was 0.25 mM. Images were collected for an additional two minutes. A ten-point concentration series from 30 μM to 2 nM with a 1:3 dilution factor was generated using an Echo liquid handler 650 (Labcyte, San Jose, CA). Final DMSO concentration, 0.3% (v/v) in the assay was constant across all compound concentrations.
The initial slopes of the Tl+-induced fluorescence changes were fit to a four-parameter logistic equation using our in-house software Waveguide to determine potency and efficacy values. […]
Bauer, J. A.; Days, E. L.; Lindsley, C. […]

SMILES	IC50	inhibition at 30 µM	Thallium Flux Potency IC50	Thallium Flux Efficacy (% Inhibition)	Emax
FC(F)Oc1ccc(CNCc2cccc3ccccc23)cc1 [Compound 3a]	> 10 µM	45%	–	–	–
N#Cc1ccc(CNCc2cccc3ccccc23)cc1 [Compound 3b]	> 10 µM	88%	–	–	–
FS(F)(F)(F)(F)c1ccc(CNCc2cccc3ccccc23)cc1 [Compound 3c]	–	–	inactive	inactive	–
O=C1CCCN1c1ccc(CNCc2cccc3ccccc23)cc1 [Compound 3d]	–	–	inactive	inactive	–
Cc1cc(C)n(-c2ccc(CNCc3cccc4ccccc34)cc2)n1 [Compound 3e]	> 10 µM	50%	–	–	–
OCc1ccc(CNCc2cccc3ccccc23)cc1 [Compound 3f]	–	–	inactive	inactive	–
COc1ccc2c(c1)CCN(Cc1cccc3ccccc13)C2 [Compound 3g]	–	–	inactive	inactive	–
c1ccc2c(c1)CN(Cc1cccc3ccccc13)CCO2 [Compound 3h]	–	–	inactive	inactive	–
COCCOc1ccc(CNCc2cccc3ccccc23)cc1 [Compound 3j]	–	–	inactive	inactive	–
O=S1(=O)CCCN1c1ccc(CNCc2cccc3ccccc23)cc1 [Compound 3k]	–	–	inactive	inactive	–
CP(C)(=O)c1ccc(CNCc2cccc3ccccc23)cc1 [Compound 3l]	–	–	inactive	inactive	–
COc1ccc(CNCc2nccc3ccccc23)cc1 [Compound 5a]	–	–	inactive	inactive	–
COc1ccc(CNCc2cccc3cnccc23)cc1 [Compound 5c]	> 10 µM	45%	–	–	–
COc1ccc(CNCc2cccc3ncccc23)cc1 [Compound 5d]	–	–	inactive	inactive	–
COc1ccc(CNCc2ccnc3ccccc23)cc1 [Compound 5e]	> 10 µM	75%	–	–	–
COc1ccc(CNCc2cccn3ccnc23)cc1 [Compound 5f]	–	–	inactive	inactive	–
COc1ccc(CNCc2cccc3c2OC(F)(F)O3)cc1 [Compound 5g]	–	–	inactive	inactive	–
COc1ccc(CNCc2ccc(-c3ccccn3)cc2)cc1 [Compound 5l]	> 10 µM	90%	–	–	–
COc1ccc(CNCc2ccc(-c3cccnc3)cc2)cc1 [Compound 5m]	10.8 µM	–	–	–	98%
COc1ccc(CNCc2ccc(-c3ccncc3)cc2)cc1 [Compound 5n]	12.5 µM	–	–	–	98%
COc1ccc(CNCc2ccc(-c3ccccc3F)cc2)cc1 [Compound 5o]	10.7 µM	–	–	–	102%
COc1ccc(CNCc2ccc(-c3ccc(F)cc3)cc2)cc1 [Compound 5q]	9.3 µM	–	–	–	99%
COc1ccc(CNCc2ccc(-c3cnn(C)c3)cc2)cc1 [Compound 5u]	–	–	inactive	inactive	–
COc1ccc(CNCc2ccc(N3CCCC3)cc2)cc1 [Compound 5v]	> 10 µM	96%	–	–	–
COc1ccc(CNCc2ccc(N3CCCCC3)cc2)cc1 [Compound 5w]	> 10 µM	53%	–	–	–
COc1ccc(CNCc2ccc(N3CCCCCC3)cc2)cc1 [Compound 5x]	> 10 µM	46%	–	–	–
COc1ccc(CNCc2ccc(N3CCOCC3)cc2)cc1 [Compound 5y]	–	–	inactive	inactive	–
COc1ccc(CNCc2ccc(N3CCCCS3(=O)=O)cc2)cc1 [Compound 5z]	–	–	inactive	inactive	–
